Square brackets hold non-standard residues; d marks the D form. Ends that are not written are not given here. Peptide text beside a SMILES is read from it.
Assays:
human CMKLR1 = target: T1, human CMKLR1 (Homo sapiens, UniProt Q99788); assay: Ca2+ mobilization (CellLux imaging) agonist assay in HEK293A cells expressing CMKLR1 and Gα15; type: cell-based; conditions: Ca2+ mobilization, CMKLR1, decimal comma; for EC50: NR where no EC50 is given, read-out: EC50
T1 construct: host or cells: HEK293A (Invitrogen), stably expressing human Gα15
T1 sequence (Q99788 1-373): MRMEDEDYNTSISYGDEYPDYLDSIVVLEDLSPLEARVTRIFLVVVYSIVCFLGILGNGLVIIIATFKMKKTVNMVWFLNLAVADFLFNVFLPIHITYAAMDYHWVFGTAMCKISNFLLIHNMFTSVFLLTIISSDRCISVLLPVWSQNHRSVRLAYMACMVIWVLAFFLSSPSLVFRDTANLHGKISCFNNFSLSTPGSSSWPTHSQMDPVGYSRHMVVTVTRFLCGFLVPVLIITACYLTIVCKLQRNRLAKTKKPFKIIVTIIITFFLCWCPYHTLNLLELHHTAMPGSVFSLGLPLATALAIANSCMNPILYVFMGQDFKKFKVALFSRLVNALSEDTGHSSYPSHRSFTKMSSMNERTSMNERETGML
Procedure, shortened: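 HEK293A cells co-expressing CMKLR1 and Gα15 were loaded with FLUO4-AM, and peptides were added robotically in C1 buffer (HEPES pH 7.4, 2 mM CaCl2) with 0.1% BSA. Fluorescence changes were read in duplicate wells, buffer-subtracted and normalized to background. EC50 came from amplitude–concentration plots.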

[1] = In vitro peptide stability in human serum (RP-HPLC); conditions: human, human serum, 25% (v/v) in RPMI

In the case of `CC(C)C[C@H](NC(=O)[C@@H]1CCCN1C(=O)[C@@H](NC(=O)[C@H](Cc1ccc(O)cc1)NC(=O)[C@@H]1CCCN1)C(C)C)C(=O)N[C@H](CC(=O)O)C(=O)N[C@@H](Cc1ccc(O)cc1)C(=O)N[C@@H](C)C(=O)N[C@@H](Cc1ccccc1)C(=O)O` [compound 111] (H-PYVPL[dD]YAF-OH; N-terminus assumed), the max response (human CMKLR1) is reported as 1,5 DF/F0, the EC50 (human CMKLR1) is reported as 1940 nM and the half-life at 50 µg/mL [1] is reported as 1.53 h.
With YPPGQYAFF-OH [compound 68] the max response (human CMKLR1) was 0,94 DF/F0, the EC50 (human CMKLR1) was 1480 nM and the half-life at 50 µg/mL [1] was 0.9 h.
In the case of `CC(C)C[C@H](NC(=O)[C@@H](N)Cc1ccc(O)cc1)C(=O)N1CCC[C@H]1C(=O)N1CCC[C@@H]1C(=O)N1CCC[C@H]1C(=O)N[C@@H](Cc1ccc(O)cc1)C(=O)N[C@@H](C)C(=O)N[C@@H](Cc1ccccc1)C(=O)N[C@H](Cc1ccccc1)C(=O)O` [compound 130] (H-YLP[dP]PYAF[dF]-OH; N-terminus assumed), the max response (human CMKLR1) is reported as 1,72 DF/F0, the EC50 (human CMKLR1) is reported as 43.5 nM and the half-life at 50 µg/mL [1] is reported as 3.58 h.
